# Entries after “also recorded” stand apart in the source; their conditions may differ. Read-outs that look alike come from different tables or passages of the source.
# Assays:
# [1] = tested on: human B52 NSCLC cells xenografted to nude mice; conditions: for effect on tumor growth (tumor area): 1st experiment
# Procedure: (§1) B-52 NSCL tumor pieces obtained from in vivo passage, were implanted s.c. in the inguinal region of female nude mice. Treatment was started when the tumors were approximately 25 mm^2 in size. Tumor area was determined by caliper measurements twice weekly.
# B-52 tumor pieces obtained from in vivo passage, were implanted s.c. in the inguinal region of female nude mice. Treatment was started when the tumors were approximately 25 mM2 in size. Tumor area was determined by caliper measurements twice weekly.
# (§2) Tumor area was determined by caliper measurements.
# [2] = tested on: human B-52 NSCL cancer model, xenografted in nude mice; assay: 2nd experiment: B-52 NSCL cancer xenograft in nude mice, epothilone with Iloprost and/or O-acetyl salicylic acid; conditions: Iloprost 0.2 mg/kg i.v. days 22-26, O-acetyl salicylic acid 60 mg/kg p.o. days 19-29; for effect on tumor growth (tumor area): 2nd experiment (FIG. 1), epothilone 8 mg/kg i.v. once day 24
# Procedure: as §1
# The 2nd Experiment was made to evaluate in a human B-52 NSCL cancer model, xenografted in nude mice the effect of: • Iloprost and O-acetyl salicyclic acid alone, • the combination of Iloprost and epothilone, • the combination of O-acetyl salicyclic acid and epothilone, • the combination of Iloprost and O-acetyl salicyclic acid as well as • the combination of Iloprost, O-acetyl salicyclic acid and epothilone.
# The study was designed to determine the response of a lung cancer model to a cytotoxic treatment regime with the epothilone derivative in combination with Iloprost, O-acetyl salicylic acid or the combination thereof.
# The tumor-inhibiting effect of, O-acetyl salicylic acid (ASS) and iloprost was investigated in the human B-52 NSCL cancer model, xenografted in nude mice.
# B-52 tumor pieces obtained from in vivo passage, were implanted s.c. in the inguinal region of female nude mice. Treatment was started when the tumors were approximately 25 mm^2 in size. Tumor area was determined by caliper measurements twice weekly.
# as §2
SMILES,effect on tumor growth (tumor area) ([1]; epothilone at the highest dose of 10 mg/kg i.v. 1x day 29),"toxicity ([1]; mouse, in vivo, iv, 10 mg/kg)",effect on tumor growth (tumor area) [2],"effect on tumor growth (tumor area) ([1]; Iloprost 0.2 mg/kg i.v. 1x/day days 27-31, epothilone 7 or 10 mg/kg i.v. 1x day 29)",effect on bodyweight ([2]; 2nd experiment)
"C=CC[C@H]1C(=O)C(C)(C)[C@@H](O)CC(=O)O[C@H](c2ccc3sc(C)nc3c2)C[C@@H]2O[C@]2(C)CCC[C@H](C)[C@@H]1O [epothilone, (1S,3S,7S,10R,11S,12S,16R)-7,11-dihydroxy-3-(2-methyl-benzothiazol-5-yl)-10-(prop-2-en-1-yl)-8,8,12,16-tetramethyl-4,17-dioxabicyclo[14.1.0]heptadecane-5,9-dione]",reduced tumor growth,proved to be toxic,slightly reduced tumor growth; also recorded: effective in growth inhibiting,,
"CC#CCC(C)[C@H](O)/C=C/[C@@H]1[C@H]2C/C(=C/CCCC(=O)O)C[C@H]2C[C@H]1O (stereo partly drawn) [Iloprost, ((E)-5-{(3aS,4R,5R,6aS)-5-Hydroxy-4-[(E)-(3S,4RS)-3-hydroxy)-4-methyl-1-octen-6-ynyl]perhydropentalen-2-ylidene}valeric acid]",,,no effects,no significant effect on tumor growth,no effect
